Measured values from doi:10.1101/2023.03.24.534094v2 (biorxiv, 2023).
Like-named read-outs stand apart in the source and are kept apart here.

What was measured:
Assay in all cases: biochemical
AAK1 = AAK1 (Homo sapiens, UniProt Q2M2I8)
CK1d = CK1d (Homo sapiens, UniProt P48730)
CK2a2 = CK2a2 (Homo sapiens, UniProt P19784)
CaMKK2 = CaMKK2 (Homo sapiens, UniProt Q96RR4)
EpHA5 = EpHA5 (Homo sapiens, UniProt P54756)
FES = FES (Homo sapiens, UniProt P07332)
JNK1 = JNK1 (Homo sapiens, UniProt P45983)
MER = biological target: T1, MER (Homo sapiens, UniProt Q12866)
T1 sequence (Q12866 1-999): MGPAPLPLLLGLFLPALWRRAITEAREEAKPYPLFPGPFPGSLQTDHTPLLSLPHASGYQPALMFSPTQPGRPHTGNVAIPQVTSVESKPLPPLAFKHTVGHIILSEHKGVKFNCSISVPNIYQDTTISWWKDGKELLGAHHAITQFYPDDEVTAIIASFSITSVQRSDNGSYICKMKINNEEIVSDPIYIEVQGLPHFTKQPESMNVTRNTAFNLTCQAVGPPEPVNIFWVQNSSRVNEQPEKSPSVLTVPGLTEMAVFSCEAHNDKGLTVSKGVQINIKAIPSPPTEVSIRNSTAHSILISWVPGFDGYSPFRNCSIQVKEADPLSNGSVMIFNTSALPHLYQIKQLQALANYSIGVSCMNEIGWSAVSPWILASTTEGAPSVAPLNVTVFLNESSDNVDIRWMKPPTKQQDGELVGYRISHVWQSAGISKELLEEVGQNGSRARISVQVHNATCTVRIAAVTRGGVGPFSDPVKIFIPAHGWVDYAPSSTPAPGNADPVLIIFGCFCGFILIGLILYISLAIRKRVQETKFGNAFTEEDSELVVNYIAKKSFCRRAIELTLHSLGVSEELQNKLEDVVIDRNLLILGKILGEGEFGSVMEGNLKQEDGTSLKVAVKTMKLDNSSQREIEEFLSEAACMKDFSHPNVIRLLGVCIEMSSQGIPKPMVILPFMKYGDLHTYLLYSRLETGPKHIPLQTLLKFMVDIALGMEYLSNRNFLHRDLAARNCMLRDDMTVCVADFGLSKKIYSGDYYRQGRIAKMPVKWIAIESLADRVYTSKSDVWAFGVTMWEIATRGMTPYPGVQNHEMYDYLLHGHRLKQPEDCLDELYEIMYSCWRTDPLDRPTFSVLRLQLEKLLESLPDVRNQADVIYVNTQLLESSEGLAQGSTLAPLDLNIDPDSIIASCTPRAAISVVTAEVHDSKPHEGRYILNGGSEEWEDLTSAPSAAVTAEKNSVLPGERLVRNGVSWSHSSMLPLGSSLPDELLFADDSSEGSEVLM

SRPK1 = SRPK1 (Homo sapiens, UniProt Q96SB4)
SRPK1, sequence (Q96SB4 whole entry): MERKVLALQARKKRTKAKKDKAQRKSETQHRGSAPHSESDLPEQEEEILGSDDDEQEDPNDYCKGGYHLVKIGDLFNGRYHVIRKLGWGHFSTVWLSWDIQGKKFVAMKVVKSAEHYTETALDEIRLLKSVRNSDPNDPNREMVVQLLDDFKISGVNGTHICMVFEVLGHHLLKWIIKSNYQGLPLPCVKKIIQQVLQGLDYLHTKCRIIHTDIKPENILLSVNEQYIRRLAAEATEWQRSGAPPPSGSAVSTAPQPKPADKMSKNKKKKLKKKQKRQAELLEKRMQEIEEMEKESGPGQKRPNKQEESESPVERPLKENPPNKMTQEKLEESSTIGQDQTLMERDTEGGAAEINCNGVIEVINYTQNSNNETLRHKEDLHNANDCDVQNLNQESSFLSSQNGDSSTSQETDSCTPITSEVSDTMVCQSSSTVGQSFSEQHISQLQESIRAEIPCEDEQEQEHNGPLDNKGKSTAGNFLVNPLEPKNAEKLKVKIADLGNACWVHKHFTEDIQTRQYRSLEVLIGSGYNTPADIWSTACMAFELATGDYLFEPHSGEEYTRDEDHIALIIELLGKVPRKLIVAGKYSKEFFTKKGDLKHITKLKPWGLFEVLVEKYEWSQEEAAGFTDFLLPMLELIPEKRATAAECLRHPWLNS

TLK1 = biological target: T2, TLK1 (Homo sapiens, UniProt Q9UKI8)
T2 sequence (Q9UKI8 1-766): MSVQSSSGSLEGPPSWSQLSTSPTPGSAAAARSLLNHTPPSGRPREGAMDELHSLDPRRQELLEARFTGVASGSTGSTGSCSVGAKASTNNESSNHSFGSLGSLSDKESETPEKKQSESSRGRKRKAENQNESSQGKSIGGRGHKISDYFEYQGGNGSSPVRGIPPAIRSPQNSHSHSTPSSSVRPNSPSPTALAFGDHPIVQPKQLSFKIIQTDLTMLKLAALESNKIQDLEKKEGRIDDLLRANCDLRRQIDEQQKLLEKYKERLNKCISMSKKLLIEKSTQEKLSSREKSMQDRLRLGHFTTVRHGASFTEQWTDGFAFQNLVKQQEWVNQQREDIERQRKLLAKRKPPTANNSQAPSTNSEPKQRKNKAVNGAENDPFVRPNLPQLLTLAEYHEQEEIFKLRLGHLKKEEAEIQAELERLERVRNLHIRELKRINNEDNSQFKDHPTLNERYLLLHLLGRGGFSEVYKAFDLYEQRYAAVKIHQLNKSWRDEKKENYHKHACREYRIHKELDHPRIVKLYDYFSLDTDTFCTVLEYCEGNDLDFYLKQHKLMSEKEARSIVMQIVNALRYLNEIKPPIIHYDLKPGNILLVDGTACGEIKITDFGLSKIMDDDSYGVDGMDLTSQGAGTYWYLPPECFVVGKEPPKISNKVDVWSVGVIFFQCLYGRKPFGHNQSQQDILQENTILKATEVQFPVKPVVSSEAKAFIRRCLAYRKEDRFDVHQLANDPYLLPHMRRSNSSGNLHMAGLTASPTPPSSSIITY

Wnk1 = Wnk1 (Homo sapiens, UniProt Q9H4A3)

AAK1, sequence (Q2M2I8 whole entry): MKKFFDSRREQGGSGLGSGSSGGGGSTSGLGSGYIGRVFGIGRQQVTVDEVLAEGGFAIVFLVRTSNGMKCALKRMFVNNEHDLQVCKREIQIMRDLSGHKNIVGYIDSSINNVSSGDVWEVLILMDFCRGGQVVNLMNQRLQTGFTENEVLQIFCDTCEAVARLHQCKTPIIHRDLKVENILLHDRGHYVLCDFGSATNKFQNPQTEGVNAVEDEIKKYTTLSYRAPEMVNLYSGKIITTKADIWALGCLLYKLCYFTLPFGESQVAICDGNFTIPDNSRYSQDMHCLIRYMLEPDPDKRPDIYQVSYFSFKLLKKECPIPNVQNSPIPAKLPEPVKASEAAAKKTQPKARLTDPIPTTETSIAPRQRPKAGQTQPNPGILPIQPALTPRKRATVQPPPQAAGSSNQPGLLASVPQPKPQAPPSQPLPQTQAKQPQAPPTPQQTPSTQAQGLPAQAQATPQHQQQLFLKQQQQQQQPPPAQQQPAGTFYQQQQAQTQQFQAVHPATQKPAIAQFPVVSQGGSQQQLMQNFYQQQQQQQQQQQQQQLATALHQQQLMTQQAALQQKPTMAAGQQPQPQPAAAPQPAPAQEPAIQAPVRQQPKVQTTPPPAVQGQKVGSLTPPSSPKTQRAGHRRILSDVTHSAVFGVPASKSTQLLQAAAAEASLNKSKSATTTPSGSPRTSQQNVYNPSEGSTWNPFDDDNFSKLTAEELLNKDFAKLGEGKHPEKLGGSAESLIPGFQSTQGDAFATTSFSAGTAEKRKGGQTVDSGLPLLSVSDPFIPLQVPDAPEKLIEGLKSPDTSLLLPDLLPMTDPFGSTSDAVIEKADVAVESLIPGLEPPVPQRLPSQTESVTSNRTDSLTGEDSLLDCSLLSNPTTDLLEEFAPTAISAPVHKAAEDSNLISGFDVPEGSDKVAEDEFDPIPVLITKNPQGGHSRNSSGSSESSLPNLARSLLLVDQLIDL
FES, sequence (P07332 whole entry): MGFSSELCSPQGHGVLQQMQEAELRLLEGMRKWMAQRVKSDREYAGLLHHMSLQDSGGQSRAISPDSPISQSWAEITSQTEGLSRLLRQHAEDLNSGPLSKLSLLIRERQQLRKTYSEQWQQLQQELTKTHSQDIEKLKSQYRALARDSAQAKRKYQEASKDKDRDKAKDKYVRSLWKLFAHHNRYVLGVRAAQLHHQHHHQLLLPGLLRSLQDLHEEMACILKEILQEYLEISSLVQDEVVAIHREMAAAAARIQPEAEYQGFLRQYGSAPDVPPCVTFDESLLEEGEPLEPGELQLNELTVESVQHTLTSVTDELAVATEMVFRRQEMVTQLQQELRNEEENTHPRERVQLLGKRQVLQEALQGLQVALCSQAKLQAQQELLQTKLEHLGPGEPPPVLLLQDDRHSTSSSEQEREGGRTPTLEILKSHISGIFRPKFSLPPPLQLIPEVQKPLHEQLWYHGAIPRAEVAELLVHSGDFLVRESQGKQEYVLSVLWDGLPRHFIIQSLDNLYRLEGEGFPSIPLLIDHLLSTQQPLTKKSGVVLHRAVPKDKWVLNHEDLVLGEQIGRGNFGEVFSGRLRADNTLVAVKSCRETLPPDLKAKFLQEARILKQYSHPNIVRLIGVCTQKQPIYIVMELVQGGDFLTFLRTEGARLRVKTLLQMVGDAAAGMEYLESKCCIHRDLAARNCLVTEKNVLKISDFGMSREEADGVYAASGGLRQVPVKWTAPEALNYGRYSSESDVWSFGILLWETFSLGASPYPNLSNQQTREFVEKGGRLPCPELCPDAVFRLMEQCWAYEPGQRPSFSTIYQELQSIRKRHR
CK1d, sequence (P48730 whole entry): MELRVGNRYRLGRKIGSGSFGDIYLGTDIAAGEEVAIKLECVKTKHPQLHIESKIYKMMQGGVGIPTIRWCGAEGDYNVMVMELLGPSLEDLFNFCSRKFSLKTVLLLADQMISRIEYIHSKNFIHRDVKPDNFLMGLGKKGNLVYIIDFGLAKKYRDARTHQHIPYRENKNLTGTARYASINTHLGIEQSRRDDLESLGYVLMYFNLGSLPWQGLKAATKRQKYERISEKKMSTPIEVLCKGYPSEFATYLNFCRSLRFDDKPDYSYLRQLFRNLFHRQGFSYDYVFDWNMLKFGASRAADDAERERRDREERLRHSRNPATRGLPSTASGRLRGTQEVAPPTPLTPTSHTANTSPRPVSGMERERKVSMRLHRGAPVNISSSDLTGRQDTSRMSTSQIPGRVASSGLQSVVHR
CaMKK2, sequence (Q96RR4 whole entry): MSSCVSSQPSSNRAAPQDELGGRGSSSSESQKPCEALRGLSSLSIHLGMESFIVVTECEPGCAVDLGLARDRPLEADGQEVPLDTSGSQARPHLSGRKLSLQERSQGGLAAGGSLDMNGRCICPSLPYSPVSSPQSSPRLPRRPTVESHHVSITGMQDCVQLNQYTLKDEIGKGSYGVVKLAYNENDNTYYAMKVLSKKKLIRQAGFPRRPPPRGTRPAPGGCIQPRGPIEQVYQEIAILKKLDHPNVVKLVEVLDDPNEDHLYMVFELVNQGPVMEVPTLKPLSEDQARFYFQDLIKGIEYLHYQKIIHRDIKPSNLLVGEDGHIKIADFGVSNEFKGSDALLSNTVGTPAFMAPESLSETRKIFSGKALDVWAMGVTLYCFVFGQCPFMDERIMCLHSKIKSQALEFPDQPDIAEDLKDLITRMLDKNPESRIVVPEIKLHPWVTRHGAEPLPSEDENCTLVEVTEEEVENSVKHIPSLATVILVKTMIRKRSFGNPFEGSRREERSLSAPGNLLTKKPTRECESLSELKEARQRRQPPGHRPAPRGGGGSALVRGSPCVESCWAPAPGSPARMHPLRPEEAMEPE
EpHA5, sequence (P54756 whole entry): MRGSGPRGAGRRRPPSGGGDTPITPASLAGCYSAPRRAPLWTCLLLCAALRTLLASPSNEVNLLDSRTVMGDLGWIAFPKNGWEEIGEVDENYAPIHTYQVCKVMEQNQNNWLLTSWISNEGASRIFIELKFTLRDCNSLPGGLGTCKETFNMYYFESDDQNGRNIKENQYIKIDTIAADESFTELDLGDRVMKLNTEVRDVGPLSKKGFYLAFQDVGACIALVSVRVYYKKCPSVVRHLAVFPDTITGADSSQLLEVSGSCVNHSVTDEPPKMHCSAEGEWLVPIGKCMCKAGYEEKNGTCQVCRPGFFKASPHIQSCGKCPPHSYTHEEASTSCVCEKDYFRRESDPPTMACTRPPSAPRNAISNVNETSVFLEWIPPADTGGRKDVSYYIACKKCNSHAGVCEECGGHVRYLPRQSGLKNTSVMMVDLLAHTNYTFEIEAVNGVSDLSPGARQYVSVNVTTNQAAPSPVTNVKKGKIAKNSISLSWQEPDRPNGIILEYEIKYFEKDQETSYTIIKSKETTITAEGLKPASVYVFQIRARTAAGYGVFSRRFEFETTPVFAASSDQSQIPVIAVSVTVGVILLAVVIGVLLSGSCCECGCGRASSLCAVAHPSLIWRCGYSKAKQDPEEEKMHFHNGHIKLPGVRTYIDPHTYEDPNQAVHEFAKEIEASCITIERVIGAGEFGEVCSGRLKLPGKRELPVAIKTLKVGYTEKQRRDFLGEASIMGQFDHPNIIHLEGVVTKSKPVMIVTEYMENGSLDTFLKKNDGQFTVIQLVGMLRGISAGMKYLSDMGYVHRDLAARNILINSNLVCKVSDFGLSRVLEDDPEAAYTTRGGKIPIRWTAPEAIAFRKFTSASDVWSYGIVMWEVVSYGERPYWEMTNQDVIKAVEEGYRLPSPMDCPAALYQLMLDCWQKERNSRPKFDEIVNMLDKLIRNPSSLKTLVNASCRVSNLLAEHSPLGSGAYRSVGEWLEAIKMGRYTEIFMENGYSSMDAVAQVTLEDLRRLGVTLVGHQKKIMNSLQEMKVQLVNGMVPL
CK2a2, sequence (P19784 whole entry): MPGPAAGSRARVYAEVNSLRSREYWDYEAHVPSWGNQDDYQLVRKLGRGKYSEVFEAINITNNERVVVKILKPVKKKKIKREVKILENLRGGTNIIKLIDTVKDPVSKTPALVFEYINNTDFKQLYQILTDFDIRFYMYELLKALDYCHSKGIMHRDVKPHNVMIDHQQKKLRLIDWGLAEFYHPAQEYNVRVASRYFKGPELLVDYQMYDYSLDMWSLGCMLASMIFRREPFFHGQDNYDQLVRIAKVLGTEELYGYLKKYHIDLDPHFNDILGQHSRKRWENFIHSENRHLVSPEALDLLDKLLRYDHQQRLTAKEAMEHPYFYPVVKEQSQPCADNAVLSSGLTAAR

A ΔTm at 10 µM (AAK1; read-out: dTm 10) of 0.5 °C, a ΔTm at 10 µM (CK1d; read-out: dTm 10) of 0 °C and a ΔTm at 10 µM (CK2a2; read-out: dTm 10) of 0.2 °C were found for `CNc1ncc2cc(-c3cc(Cl)ccc3Br)c(=O)n(CCCCN)c2n1` [compound 10, 8-(4-Aminobutyl)-6-(2-bromo-5-chlorophenyl)-2-(methylamino)pyrido[2,3-d]pyrimidin-7(8H)-one] in this work. The ΔTm at 10 µM (CaMKK2; read-out: dTm 10) was 0.7 °C, the ΔTm at 10 µM (EpHA5; read-out: dTm 10) was 5.5 °C and the ΔTm at 10 µM (FES; read-out: dTm 10) was 2.5 °C. It also gave a ΔTm at 10 µM (JNK1; read-out: dTm 10) of 0.8 °C, a ΔTm at 10 µM (MER; read-out: dTm 10) of 0.7 °C and a ΔTm at 10 µM (SRPK1; read-out: dTm 10) of 0.2 °C. The ΔTm at 10 µM (TLK1; read-out: dTm 10) was 0.5 °C and the ΔTm at 10 µM (Wnk1; read-out: dTm 10) was 0.3 °C.

A ΔTm at 10 µM (AAK1; read-out: dTm 8) of 0.8 °C, a ΔTm at 10 µM (CK1d; read-out: dTm 8) of 0 °C and a ΔTm at 10 µM (CK2a2; read-out: dTm 8) of 0 °C were found for `CNc1ncc2cc(-c3cc(Cl)ccc3Cl)c(=O)n(CCCCN)c2n1` [compound 8, 8-(4-Aminobutyl)-6-(2,5-dichlorophenyl)-2-(methylamino)pyrido[2,3-d]pyrimidin-7(8H)-one] in this work. The ΔTm at 10 µM (CaMKK2; read-out: dTm 8) was 0.6 °C, the ΔTm at 10 µM (EpHA5; read-out: dTm 8) was 5.4 °C and the ΔTm at 10 µM (FES; read-out: dTm 8) was 2.5 °C. It also gave a ΔTm at 10 µM (JNK1; read-out: dTm 8) of 1.4 °C, a ΔTm at 10 µM (MER; read-out: dTm 8) of 0.5 °C and a ΔTm at 10 µM (SRPK1; read-out: dTm 8) of 0.3 °C. For the same compound, the ΔTm at 10 µM (TLK1; read-out: dTm 8) was 1 °C and the ΔTm at 10 µM (Wnk1; read-out: dTm 8) was 0.3 °C.

A ΔTm at 10 µM (AAK1; read-out: dTm 9) of 0 °C, a ΔTm at 10 µM (CK1d; read-out: dTm 9) of 0 °C and a ΔTm at 10 µM (CK2a2; read-out: dTm 9) of 0 °C were found for `CNc1ncc2cc(-c3cc(C(F)(F)F)ccc3Cl)c(=O)n(CCCCN)c2n1` [compound 9, 8-(4-Aminobutyl)-6-(2-chloro-5-(trifluoromethyl)phenyl)-2-(methylamino)pyrido[2,3-d]pyrimidin-7(8H)-one] in this work. The ΔTm at 10 µM (CaMKK2; read-out: dTm 9) was 0.4 °C, the ΔTm at 10 µM (EpHA5; read-out: dTm 9) was 2.6 °C and the ΔTm at 10 µM (FES; read-out: dTm 9) was 1.4 °C. It also gave a ΔTm at 10 µM (JNK1; read-out: dTm 9) of 0.6 °C, a ΔTm at 10 µM (MER; read-out: dTm 9) of 0.2 °C and a ΔTm at 10 µM (SRPK1; read-out: dTm 9) of 0.1 °C. For the same compound, the ΔTm at 10 µM (TLK1; read-out: dTm 9) was 0.7 °C and the ΔTm at 10 µM (Wnk1; read-out: dTm 9) was 0.1 °C.

A ΔTm at 10 µM (AAK1; read-out: dTm 11) of 0.4 °C, a ΔTm at 10 µM (CK1d; read-out: dTm 11) of 0 °C and a ΔTm at 10 µM (CK2a2; read-out: dTm 11) of 0.1 °C were found for `CNc1ncc2cc(-c3cc(Br)ccc3Br)c(=O)n(CCCCN)c2n1` [compound 11, 8-(4-Aminobutyl)-6-(2,5-dibromophenyl)-2-(methylamino)pyrido[2,3-d]pyrimidin-7(8H)-one] in this work. The ΔTm at 10 µM (CaMKK2; read-out: dTm 11) was 0.6 °C, the ΔTm at 10 µM (EpHA5; read-out: dTm 11) was 4.7 °C and the ΔTm at 10 µM (FES; read-out: dTm 11) was 2.8 °C. The ΔTm at 10 µM (JNK1; read-out: dTm 11) was 0.9 °C, the ΔTm at 10 µM (MER; read-out: dTm 11) was 0.6 °C and the ΔTm at 10 µM (SRPK1; read-out: dTm 11) was 0.2 °C. It also gave a ΔTm at 10 µM (TLK1; read-out: dTm 11) of 1 °C and a ΔTm at 10 µM (Wnk1; read-out: dTm 11) of 0.4 °C.

A ΔTm at 10 µM (AAK1; read-out: dTm 12) of 0.5 °C, a ΔTm at 10 µM (CK1d; read-out: dTm 12) of 0.6 °C and a ΔTm at 10 µM (CK2a2; read-out: dTm 12) of -1 °C were found for `CNc1ncc2cc(-c3cc(F)c(-c4cccc(C)n4)cc3F)c(=O)n(CCCCN)c2n1` [compound 12, 8-(4-Aminobutyl)-6-(2,5-difluoro-4-(6-methylpyridin-2-yl)phenyl)-2-(methylamino)pyrido[2,3-d]pyrimidin-7(8H)-one] in this work. The ΔTm at 10 µM (CaMKK2; read-out: dTm 12) was 0 °C, the ΔTm at 10 µM (EpHA5; read-out: dTm 12) was 3.2 °C and the ΔTm at 10 µM (FES; read-out: dTm 12) was 5.4 °C. For the same compound, the ΔTm at 10 µM (JNK1; read-out: dTm 12) was 0.7 °C, the ΔTm at 10 µM (MER; read-out: dTm 12) was 1.1 °C and the ΔTm at 10 µM (SRPK1; read-out: dTm 12) was 0 °C. For the same compound, the ΔTm at 10 µM (TLK1; read-out: dTm 12) was -1.5 °C and the ΔTm at 10 µM (Wnk1; read-out: dTm 12) was 1 °C.
